In PubChem BioAssay AID1195 (EPA DSSTox, 2008):

Tested on: human maximum recommended daily dose, FDA database
Test: DSSTox (FDAMDD) FDA Maximum (Recommended) Daily Dose Database
Conditions: hits give low values
Outline: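 MRDD values come from clinical trials with daily oral dosing, usually for 3–12 months, for the average adult, in mg/day converted to mg/kg-bw/day assuming 60 kg. Antineoplastic mg/m2 doses are divided by 37. Activity score maps log10(1/MRDD mmol) onto 1–100.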

[1] = TherapeuticCategory: analgesic, anti inflammatory
[2] = TherapeuticCategory: antineoplastic
[3] = TherapeuticCategory: anti inflammatory
[4] = TherapeuticCategory: antibacterial
[5] = TherapeuticCategory: antihistaminic
[6] = TherapeuticCategory: anthelmintic
[7] = TherapeuticCategory: anticonvulsant
[8] = TherapeuticCategory: glucocorticoid
[9] = TherapeuticCategory: antidiabetic
[10] = TherapeuticCategory: antihypertensive
[11] = TherapeuticCategory: antiulcerative

SMILES: O=C(O)c1ccccc1Nc1cccc(C(F)(F)F)c1
- maximum recommended daily dose (mmol/kg-bw/day) [1]: 0.0356

SMILES: CCCCC[C@](C)(O)/C=C/[C@@H]1[C@@H](C/C=C\CCCC(=O)O)[C@@H](O)C[C@H]1O
- maximum recommended daily dose (mmol/kg-bw/day) (TherapeuticCategory: oxytocic): 0.000543

SMILES: CC(=O)O[C@H]1C(=O)[C@@]2(C)[C@H]([C@H](OC(=O)c3ccccc3)[C@]3(O)C[C@H](OC(=O)[C@H](O)[C@@H](NC(=O)c4ccccc4)c4ccccc4)C(C)=C1C3(C)C)[C@]1(OC(C)=O)CO[C@@H]1C[C@@H]2O
- maximum recommended daily dose (mmol/kg-bw/day) [2]: 0.00554

SMILES: Cc1cn([C@H]2C[C@H](N=[N+]=[N-])[C@@H](CO)O2)c(=O)[nH]c1=O
- maximum recommended daily dose (mmol/kg-bw/day) (TherapeuticCategory: antiviral): 0.0374

SMILES: CCOC(=O)c1c(C)cc2c(CO)n[nH]c(=O)c2c1C
- maximum recommended daily dose (mmol/kg-bw/day) (TherapeuticCategory: phosphodiesterase inhibitor): 0.724

SMILES: CC[N+](C)(C)Cc1ccccc1Br
- maximum recommended daily dose (mmol/kg-bw/day) (TherapeuticCategory: antiadrenergic, cardiac depressant): 0.0121

SMILES: O=C(CCCN1CCC(n2c(=S)[nH]c3ccccc32)CC1)c1ccc(F)cc1
- maximum recommended daily dose (mmol/kg-bw/day) (TherapeuticCategory: antipsychotic): 0.000503

SMILES: Cc1ccc(C(=O)C(C)CN2CCCCC2)cc1 (stereo unspecified)
- maximum recommended daily dose (mmol/kg-bw/day) (TherapeuticCategory: skeletal muscle relaxant): 0.0204

SMILES: CCCCC(CC)COC(=O)CC(C(=O)OCC(CC)CCCC)S(=O)(=O)O (stereo unspecified)
- maximum recommended daily dose (mmol/kg-bw/day) (TherapeuticCategory: stool softener): 0.0109

SMILES: CC(=O)OCC(=O)[C@@]1(O)[C@H](C)C[C@H]2[C@@H]3CCC4=CC(=O)C=C[C@]4(C)[C@@]3(F)C(O)C[C@@]21C (stereo partly specified)
- maximum recommended daily dose (mmol/kg-bw/day) (TherapeuticCategory: glucocorticoid, anti inflammatory): 0.000345

SMILES: CC(N)Cc1ccccc1 (stereo unspecified)
- maximum recommended daily dose (mmol/kg-bw/day) (TherapeuticCategory: CNS stimulant, anorexic): 0.0074

SMILES: CNC[C@H](O)c1cccc(O)c1
- maximum recommended daily dose (mmol/kg-bw/day) (TherapeuticCategory: mydriatic, decongestant): 0.00498

SMILES: Cc1cccc(Nc2ccccc2C(=O)O)c1C
- maximum recommended daily dose (mmol/kg-bw/day) [3]: 0.0862

SMILES: C=C1c2cccc(O)c2C(O)=C2C(=O)[C@]3(O)C(O)=C(C(N)=O)C(=O)[C@@H](N(C)C)[C@@H]3[C@@H](O)[C@H]12
- maximum recommended daily dose (mmol/kg-bw/day) [4]: 0.0339

SMILES: C[C@@H](N)[C@@H](O)c1ccccc1
- maximum recommended daily dose (mmol/kg-bw/day) (TherapeuticCategory: decongestant, anorexic): 0.0198

SMILES: CN(C)CCOC(c1ccccc1)c1ccc(Br)cc1 (stereo unspecified)
- maximum recommended daily dose (mmol/kg-bw/day) [5]: 0.00748

SMILES: CN(C)C(=O)Oc1ccc[n+](C)c1
- maximum recommended daily dose (mmol/kg-bw/day) (TherapeuticCategory: cholinergic): 0.0766

SMILES: Cc1cccc(C)c1NC(=O)c1cc(S(N)(=O)=O)c(Cl)cc1O
- maximum recommended daily dose (mmol/kg-bw/day) (TherapeuticCategory: diuretic, antihypertensive): 0.00188

SMILES: C1CNCCN1
- maximum recommended daily dose (mmol/kg-bw/day) [6]: 0.774

SMILES: Cc1ccsc1C(=CCCN1CCC[C@@H](C(=O)O)C1)c1sccc1C
- maximum recommended daily dose (mmol/kg-bw/day) [7]: 0.00285

SMILES: CC(C)(O)CC(C)(O)c1ccc(Cl)cc1 (stereo unspecified)
- maximum recommended daily dose (mmol/kg-bw/day) (TherapeuticCategory: antidepressant): 0.0437

SMILES: NS(=O)(=O)c1ccc(N2CCCCS2(=O)=O)cc1
- maximum recommended daily dose (mmol/kg-bw/day) [7]: 0.0344

SMILES: C[C@H]1C[C@H]2[C@@H]3CCC4=CC(=O)C=C[C@]4(C)[C@@]3(F)[C@@H](O)C[C@]2(C)[C@@]1(O)C(=O)CO
- maximum recommended daily dose (mmol/kg-bw/day) [8]: 0.000382

SMILES: CCCCCCc1ccc(O)cc1O
- maximum recommended daily dose (mmol/kg-bw/day) (TherapeuticCategory: antihelmintic, antiseptic): 0.0858

SMILES: COc1cccc2c1C(=O)c1c(O)c3c(c(O)c1C2=O)C[C@@](O)(C(=O)CO)C[C@@H]3O[C@H]1C[C@H](N)[C@H](O)[C@H](C)O1
- maximum recommended daily dose (mmol/kg-bw/day) [2]: 0.00447

SMILES: Cn1c(=O)c2c(ncn2C)n(C)c1=O
- maximum recommended daily dose (mmol/kg-bw/day) (TherapeuticCategory: CNS stimulant): 0.0515

SMILES: C(=C\c1ccccc1)/CN1CCN(C(c2ccccc2)c2ccccc2)CC1
- maximum recommended daily dose (mmol/kg-bw/day) (TherapeuticCategory: antihistaminic, peripheral vasodilator): 0.0102

SMILES: CC1(C)C(\C=C/C=C\C=C/C=C2/N(CCCCS(=O)(=O)O)c3ccc4ccccc4c3C2(C)C)=[N+](CCCCS(=O)(=O)[O-])c2ccc3ccccc3c21
- maximum recommended daily dose (mmol/kg-bw/day) (TherapeuticCategory: diagnostic aid): 0.000645

SMILES: CN1CCN(C(c2ccccc2)c2ccccc2)CC1
- maximum recommended daily dose (mmol/kg-bw/day) (TherapeuticCategory: antiemetic): 0.0125

SMILES: O=P(O)(O)OC(CO)CO
- maximum recommended daily dose (mmol/kg-bw/day) (TherapeuticCategory: none): 0.388

SMILES: CCCCNC(=O)NS(=O)(=O)c1ccc(N)cc1
- maximum recommended daily dose (mmol/kg-bw/day) [9]: 0.0615

SMILES: C[C@H](CSC(=O)[C@@H](C)NC(=O)C1CCCCC1)C(=O)N1CCC[C@H]1C(=O)O
- maximum recommended daily dose (mmol/kg-bw/day) [10]: 0.00251

SMILES: O=C1NC(=O)[C@@]2(CCOc3ccc(F)cc32)N1
- maximum recommended daily dose (mmol/kg-bw/day) (TherapeuticCategory: none): 0.0177

SMILES: NCCCCCC(=O)O
- maximum recommended daily dose (mmol/kg-bw/day) (TherapeuticCategory: hemostatic): 1.52

SMILES: CCN1CC(CCN2CCOCC2)C(c2ccccc2)(c2ccccc2)C1=O (stereo unspecified)
- maximum recommended daily dose (mmol/kg-bw/day) (TherapeuticCategory: respiratory stimulant): 0.0106

SMILES: CO[C@@]1(NC(=O)CSCC#N)C(=O)N2C(C(=O)O)=C(CSc3nnnn3C)CS[C@@H]21
- maximum recommended daily dose (mmol/kg-bw/day) [4]: 0.212

SMILES: CCN(CC)CCNc1ccc(CO)c2sc3ccccc3c(=O)c12
- maximum recommended daily dose (mmol/kg-bw/day) (TherapeuticCategory: antihelmintic): 0.0281

SMILES: COc1ccc(Cc2nccc3cc(OC)c(OC)cc23)cc1OC
- maximum recommended daily dose (mmol/kg-bw/day) (TherapeuticCategory: smooth muscle relaxant, cerebral vasodilator): 0.0295

SMILES: O=C1N(Cc2ccccc2)C2C[S+]3CCCC3C2N1Cc1ccccc1 (stereo unspecified)
- maximum recommended daily dose (mmol/kg-bw/day) [10]: 0.000112

SMILES: CN(C)CCC(c1ccc(Cl)cc1)c1ccccn1 (stereo unspecified)
- maximum recommended daily dose (mmol/kg-bw/day) [5]: 0.000484

SMILES: CCOc1ccc2nc(S(N)(=O)=O)sc2c1
- maximum recommended daily dose (mmol/kg-bw/day) (TherapeuticCategory: carbonic anhydrase inhibitor, diuretic): 0.0322

SMILES: COc1ccc2c3c1O[C@H]1C(=O)CC[C@H]4[C@@H](C2)N(C)CC[C@]314
- maximum recommended daily dose (mmol/kg-bw/day) (TherapeuticCategory: analgesic): 0.00251

SMILES: CC(=O)O[C@]1(C(C)=O)CC[C@H]2[C@@H]3C=C(Cl)C4=CC(=O)CC[C@]4(C)[C@H]3CC[C@@]21C
- maximum recommended daily dose (mmol/kg-bw/day) (TherapeuticCategory: progestogen, antineoplastic): 8.22e-05

SMILES: Cc1cc(CC(=O)O)n(C)c1C(=O)c1ccc(Cl)cc1
- maximum recommended daily dose (mmol/kg-bw/day) [1]: 0.0343

SMILES: COC(=O)C1=CCCN(C)C1
- maximum recommended daily dose (mmol/kg-bw/day) [6]: 0.000215

SMILES: O=S(=O)(O)CCS
- maximum recommended daily dose (mmol/kg-bw/day) (TherapeuticCategory: mucolytic, uroprotective): 0.0281

SMILES: OCCN1C[C@H](O)[C@@H](O)[C@H](O)[C@H]1CO
- maximum recommended daily dose (mmol/kg-bw/day) [9]: 0.0241

SMILES: CN1CC[C@]23c4c5ccc(O)c4O[C@H]2C(=O)CC[C@@]3(O)[C@H]1C5
- maximum recommended daily dose (mmol/kg-bw/day) (TherapeuticCategory: narcotic analgesic): 0.000498

SMILES: C[C@H]1C[C@@H]2[C@H]([C@@H](O)C[C@@]3(C)[C@H]2CC[C@]3(O)C(=O)CO)[C@@]2(C)C=CC(=O)C=C12
- maximum recommended daily dose (mmol/kg-bw/day) [8]: 0.0111

SMILES: CC(C)(C)NCC(O)c1ccc(O)c(CO)c1 (stereo unspecified)
- maximum recommended daily dose (mmol/kg-bw/day) (TherapeuticCategory: bronchodilator, tocolytic): 0.00223

SMILES: CC1(C)[C@H](C(=O)O)N2C(=O)C[C@H]2S1(=O)=O
- maximum recommended daily dose (mmol/kg-bw/day) (TherapeuticCategory: combination to form antibacterial): 0.286

SMILES: Cn1c(=O)c2c(ncn2CC(O)CO)n(C)c1=O (stereo unspecified)
- maximum recommended daily dose (mmol/kg-bw/day) (TherapeuticCategory: bronchodilator): 0.236

SMILES: Cc1cc2nc3c(=O)[nH]c(=O)nc-3n(C[C@H](O)[C@H](O)[C@H](O)COP(=O)(O)O)c2cc1C
- maximum recommended daily dose (mmol/kg-bw/day) (TherapeuticCategory: enzyme cofactor vitamin): 0.0011

SMILES: CO/N=C(\C(=O)N[C@@H]1C(=O)N2C(C(=O)O)=C(CSc3nc(=O)c(=O)[nH]n3C)CS[C@H]12)c1csc(N)n1
- maximum recommended daily dose (mmol/kg-bw/day) [4]: 0.12

SMILES: COc1ccc2nc(S(=O)Cc3ncc(C)c(OC)c3C)[nH]c2c1 (stereo unspecified)
- maximum recommended daily dose (mmol/kg-bw/day) [11]: 0.00579

SMILES: C[C@]12CC[C@@H]3c4ccc(O)cc4CC[C@H]3[C@@H]1CC[C@@H]2OC(=O)CCC1CCCC1
- maximum recommended daily dose (mmol/kg-bw/day) (TherapeuticCategory: estrogen): 0.00126

SMILES: OCCN(CCO)CCO
- maximum recommended daily dose (mmol/kg-bw/day) (TherapeuticCategory: analgesic): 0.067

SMILES: S=c1nc[nH]c2nc[nH]c12
- maximum recommended daily dose (mmol/kg-bw/day) [2]: 0.0164

SMILES: Cc1ccc2c(-c3ccccc3)nc(=O)n(C(C)C)c2c1
- maximum recommended daily dose (mmol/kg-bw/day) [3]: 0.0719

SMILES: O=C(N[C@H](CO)[C@H](O)c1ccc([N+](=O)[O-])cc1)C(Cl)Cl
- maximum recommended daily dose (mmol/kg-bw/day) (TherapeuticCategory: antibacterial, antirickettsial): 0.309

SMILES: CC(C)(C)c1cc(O)ccc1O
- maximum recommended daily dose (mmol/kg-bw/day) (TherapeuticCategory: antioxidant): 0.0012

SMILES: CO/N=C(\C(=O)N[C@@H]1C(=O)N2C(C(=O)O)=C(CSc3nc(C)c(CC(=O)O)s3)CS[C@H]12)c1csc(N)n1
- maximum recommended daily dose (mmol/kg-bw/day) [4]: 0.057

SMILES: NC(=O)N1c2ccccc2C=Cc2ccccc21
- maximum recommended daily dose (mmol/kg-bw/day) (TherapeuticCategory: analgesic, anticonvulsant): 0.113

SMILES: COc1ccc(C[C@@H](C)NC[C@H](O)c2ccc(O)c(NC=O)c2)cc1
- maximum recommended daily dose (mmol/kg-bw/day) (TherapeuticCategory: antiasthmatic): 0.00775

SMILES: CN(N=O)C(=O)N[C@@H]1[C@@H](O)[C@H](O)[C@@H](CO)O[C@@H]1O
- maximum recommended daily dose (mmol/kg-bw/day) [2]: 0.407

SMILES: COc1ccc2c(c1)[C@]13CCCC[C@@H]1[C@H](C2)N(C)CC3
- maximum recommended daily dose (mmol/kg-bw/day) (TherapeuticCategory: antitussive): 0.00737

SMILES: CCCC(=O)N1CCCN(c2nc(N)c3cc(OC)c(OC)cc3n2)CC1
- maximum recommended daily dose (mmol/kg-bw/day) [10]: 0.000134

SMILES: COc1cc(C(=O)NC2CCCNC2)cc(OC)c1OC (stereo unspecified)
- maximum recommended daily dose (mmol/kg-bw/day) [11]: 0.017

SMILES: O=C(O)c1cc(-c2ccc(F)cc2F)ccc1O
- maximum recommended daily dose (mmol/kg-bw/day) [1]: 0.0999

SMILES: CN=C(NC)NCc1ccccc1
- maximum recommended daily dose (mmol/kg-bw/day) [10]: 0.0188

SMILES: COc1cc2nc(N3CCN(C(=O)C4COc5ccccc5O4)CC3)nc(N)c2cc1OC (stereo unspecified)
- maximum recommended daily dose (mmol/kg-bw/day) [10]: 0.000591

SMILES: CCC(c1ccc2cc(OC)ccc2c1)C(C)(C)C(=O)O (stereo unspecified)
- maximum recommended daily dose (mmol/kg-bw/day) (TherapeuticCategory: estrogen): 0.000524

SMILES: C/C(=C(/CCO)SSCC1CCCO1)N(C=O)Cc1cnc(C)nc1N (stereo unspecified)
- maximum recommended daily dose (mmol/kg-bw/day) (TherapeuticCategory: enzyme cofactor): 0.00419

SMILES: CCCCc1ccc(C(=O)O)nc1
- maximum recommended daily dose (mmol/kg-bw/day) (TherapeuticCategory: none): 0.0418

SMILES: COC(=O)C1=C(C)NC(C)=C(C(=O)OC(C)C)C1c1cccc2nonc12 (stereo unspecified)
- maximum recommended daily dose (mmol/kg-bw/day) (TherapeuticCategory: antihypertensive, antianginal): 0.00045

SMILES: NC(N)=NC(N)=NCCc1ccccc1
- maximum recommended daily dose (mmol/kg-bw/day) [9]: 0.00814
